Source: patent US20250275948A1, “(N-[4-(2,3-DIHYDRO-1H-INDEN-5-YL)-1,3-THIAZOL-2-YL]-2-[4-METHYL-4-(NAPHTHALEN-2-YL)-2,5-DIOXOIMIDAZOLIDIN-1-YL]ACETAMIDE AS STABILIZER OF CLOCK:BMAL1 INTERACTION FOR THE TREATMENT OF CIRCADIAN RHYTHM DISEASES AND DISORDERS” (KOC UNIVERSITESI, priority 2022, published 2025)

What was measured:
CLOCK and BMAL1 [1] = assay: Effect on core clock protein levels (western blot), U2OS Bmal1-dLuc cells; format: cell-based, human; details: unsynchronized U2OS Bmal1:dLuc cells, 24 hours
Procedure: The effect of CLK95 on core-clock proteins was assessed both on synchronized and unsynchronized U2OS Bmal1-dLuc cells. Cells were seeded into 6 well-plates with a density of 45×10^4 cell/well and incubated at 37° C. under 5% CO2 for 16 hours. For unsynchronized cells, they were treated with appropriate amounts CLK95 (final 0.25% DMSO) and further incubated for 24 hours. For synchronized cells, cell media was exchanged with 0.1 μM Dexamethasone containing DMEM. After synchronization, cells were subjected to the CLK95 (final 0.25% DMSO). After 24 hours of incubation, cells were harvested with 6 hours intervals for 7 time points (24H-60H). Then harvested cells were lysed with 90 μL RIPA buffer (50 mM Tris-HCl pH 7.4, 150 mM NaCl, 1% Triton x-100, 0.1% SDS, 1×PIC) and left for an incubation on ice for 30 minutes. Following, samples were centrifugated at 15000×g for 20 minutes at 4° C. After boiling samples with Laemmli buffer for 7 minutes at 95° C., 10 μg of protein was loaded for each sample to 10% SDS-polyacrylamide gel. For Western blot analysis following antibodies used to determine the level of core clock proteins: anti-CLOCK (Bethyl, A302-618A), anti-BMAL1 (Santa Cruz Biotech., SC-365645), anti-PER2 (Proteintech, 67513-1-Ig), anti-CRY1 (Bethyl, A302-614A), and anti-β-Actin (Cell Signaling, 8H10D10) antibodies.

CLOCK and BMAL1 [2] = assay: Subcellular fractionation of U2OS Bmal1-dLuc cells; format: cell-based, human; details: unsynchronized U2OS Bmal1-dLuc cells, 5 μM, 24 hours
Procedure: Subcellular fractionation was performed to explore if CLK95 effects the subcellular localization of core-clock proteins. U2OS Bmal1-dLuc cells were plated with a density of 40×10^4 cell/well in 6 well plate, a day prior to small molecule treatment. Following, cells were treated with either DMSO (0.25%) or 5 μM CLK95. 24 hours after small molecule treatment, cells were harvested to get fractionated. Cells were harvested with 1 mL ice cold-1×PBS, and pelleted at 5000×g for 7 minutes at 4° C. After discarding supernatants, cells were resuspended with 200 μL Cytosolic Lysis Buffer (CLB) (10 mM HEPES pH 7.9, 10 mM KCl, 0.1 mM EDTA pH 8.0, 0.05% NP-40, 1×PIC) and incubated on ice for 10 minutes. Then, samples were centrifuged at 660×g for 5 minutes (4° C.). While supernatants were transferred to new centrifuge tubes as cytosolic fractions, pellets were washed with 200 μL CLB buffer for 3 times. At the end of each wash, samples were centrifugated at 660×g for 5 minutes at 4° C. Next, cell pellets were resuspended in 100 μL Nuclear Lysis Buffer (NLB) (20 mM HEPES pH 7.9, 0.4M NaCl, 1 mM EDTA, 10% Glycerol, 1×PIC) and subjected to sonication (60% power, 10 seconds, 3 cycles) (BANDELIN SONOPULS HD 2070 homogeniser) for 2 times. This step was followed by centrifugation at 15000×g for 5 minutes with the cytosolic fractions. […]

CLOCK:BMAL1 complex = target: T1, CLOCK:BMAL1 complex (Homo sapiens, UniProt O00327+O15516); assay: Pull-down assay with biotinylated-CLK95; format: binding; details: 20 μM bCLK95 bait, 200 μM CLK95 competitor; HEK 293T and U2OS lysates
T1 construct: expressed in transfected cells; host or cells: HEK 293T
Procedure: To perform pull-down assay HEK 293T cells were transiently transfected with either 10 μg pCMV-Sport6-CLOCK or 10 μg pCMV-Sport6-Bmal1 plasmids. First, cells were seeded in a 10 cm cell culture dish at a density which will give ˜70-80% confluency next day. Then cells were transfected with 10 μg of the appropriate plasmid using 30 μL PEI in 1 mL DMEM. Cells were harvested 24 hours post-transfection and divided into four 1.5 mL centrifuge tubes. The conditions that were employed to probe the binding of the molecule to proteins contained a) only CLOCK overexpressed, b) only BMAL1 overexpressed and c) CLOCK-BMAL1 overexpressed mixtures. Pellet for each condition was lysed with 500 μL Lysis Buffer (50 mM Tris-HCl PH 7.4, 2 mM EDTA, 1 mM MgCl2, 0.2% NP-40, 1 mM Na3VO4, 1 mM NaF, 1×PIC) and incubated on ice for 20 minutes. Then samples were centrifuged at 7000×g for 10 minutes at 4° C. The supernatants of the CLOCK and BMAL1 lysates were mixed at 1:1 ratio. Following this step, collected lysate mixture was mixed with 2× binding buffer (100 mM Tris-HCl pH 7.4, 300 mM NaCl, 0.2% NP-40, 2 mM Na3VO4, 2 mM NaF, 2×PIC) at 1:1 ratio. […]

T1 sequence (O15516 whole entry): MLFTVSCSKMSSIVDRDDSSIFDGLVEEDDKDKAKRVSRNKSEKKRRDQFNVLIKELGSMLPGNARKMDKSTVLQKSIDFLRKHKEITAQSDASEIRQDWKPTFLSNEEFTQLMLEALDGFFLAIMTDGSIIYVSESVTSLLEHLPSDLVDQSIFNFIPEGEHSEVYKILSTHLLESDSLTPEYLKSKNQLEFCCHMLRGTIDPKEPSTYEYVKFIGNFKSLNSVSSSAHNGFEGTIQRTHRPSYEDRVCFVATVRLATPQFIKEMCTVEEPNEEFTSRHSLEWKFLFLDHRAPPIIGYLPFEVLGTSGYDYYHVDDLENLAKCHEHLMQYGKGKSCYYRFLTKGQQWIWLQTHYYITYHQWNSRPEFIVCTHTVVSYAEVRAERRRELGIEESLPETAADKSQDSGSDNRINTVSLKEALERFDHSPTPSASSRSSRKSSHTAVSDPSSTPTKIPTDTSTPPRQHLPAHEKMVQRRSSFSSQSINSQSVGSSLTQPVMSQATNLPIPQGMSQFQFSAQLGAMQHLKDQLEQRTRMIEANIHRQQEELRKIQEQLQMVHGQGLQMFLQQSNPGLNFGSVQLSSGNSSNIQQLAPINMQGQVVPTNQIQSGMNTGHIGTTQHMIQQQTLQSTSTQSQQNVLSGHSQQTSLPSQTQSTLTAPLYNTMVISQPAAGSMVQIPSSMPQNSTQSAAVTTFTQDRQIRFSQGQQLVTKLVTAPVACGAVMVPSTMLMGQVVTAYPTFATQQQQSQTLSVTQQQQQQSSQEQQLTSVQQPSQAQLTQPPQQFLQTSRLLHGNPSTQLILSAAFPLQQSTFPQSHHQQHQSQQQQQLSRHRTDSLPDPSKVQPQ
T1 sequence (O00327 whole entry): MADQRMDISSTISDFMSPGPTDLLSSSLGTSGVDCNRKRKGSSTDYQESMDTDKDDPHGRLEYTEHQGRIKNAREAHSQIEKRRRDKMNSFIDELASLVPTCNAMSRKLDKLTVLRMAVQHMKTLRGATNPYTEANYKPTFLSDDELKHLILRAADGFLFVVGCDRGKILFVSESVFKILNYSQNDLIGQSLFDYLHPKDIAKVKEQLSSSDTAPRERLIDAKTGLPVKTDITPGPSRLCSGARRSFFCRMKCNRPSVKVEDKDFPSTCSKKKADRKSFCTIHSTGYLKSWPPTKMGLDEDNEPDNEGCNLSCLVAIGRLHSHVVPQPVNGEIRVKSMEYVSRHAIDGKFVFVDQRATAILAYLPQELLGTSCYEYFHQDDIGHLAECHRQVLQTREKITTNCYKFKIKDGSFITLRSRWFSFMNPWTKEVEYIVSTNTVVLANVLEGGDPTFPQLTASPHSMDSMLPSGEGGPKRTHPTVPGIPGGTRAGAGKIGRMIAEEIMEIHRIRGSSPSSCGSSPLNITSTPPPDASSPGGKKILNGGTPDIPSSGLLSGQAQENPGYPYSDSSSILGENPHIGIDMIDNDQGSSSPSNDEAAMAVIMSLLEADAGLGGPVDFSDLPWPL

CC1(c2ccc3ccccc3c2)NC(=O)N(CC(=O)Nc2nc(-c3ccc4c(c3)CCC4)cs2)C1=O (stereo not drawn) [CLK95]
CLOCK and BMAL1 protein levels (CLOCK and BMAL1 [1]): increased | nuclear localization of CLOCK and BMAL1 (CLOCK and BMAL1 [2]): increasing the nuclear localization of CLOCK and BMAL1 | binding in pull-down (CLOCK:BMAL1 complex): specifically binding to CLOCK:BMAL1 complex
